Data on 63 substances can be found in patent publication US20250101436A1, “APTAMERS AND SMALL MOLECULE LIGANDS” (MeiraGTx UK II Limited, priority 2021, published 2025).

This data set deals with luciferase gene expression in HEK 293 cells in response to Comp. 004. Briefly: Screen of riboswitch constructs with 12C6-1 variant aptamers (libraries N1-N5) against Comp. 004, luciferase in HEK 293 cells. The note with it: library N2 variant aptamers (J2-3, P3-J3-3a, J3a-2 randomized) of 12C6-1 in riboswitch constructs; in response to Comp. 004; HEK 293 cells. The data set is classed as cell-based, human. An excerpt:
Cloning of riboswitch constructs containing 12C6-1 variant aptamer sequences: 12C6-1 aptamer sequence was used as template, and nucleobases were randomized at certain position in the sequence. Aptamers incorporating random mutagenesis were synthesized by Integrated DNA Technologies, Inc. Golden Gate cloning strategy (New England Biolabs, NEB) was used to clone the synthesized aptamer sequences into intron-exon-intron cassette to replace the 12C6-1 aptamer in the Luci-12C6-1 riboswitch construct, generating riboswitch constructs containing variant aptamer sequences.
To further improve the riboswitch activity in responding to Comp. 004 and related compounds, the aptamer sequence 12C6-1 was subject to mutagenesis to generate aptamer variants, and the riboswitches containing the variant aptamers were screened against Comp. 004 for the ones that have improved dynamic range of induced gene expression (the fold induction), in comparison with the fold induction by parental riboswitch construct Luci-12C6-1. […] These loop or junction region alone or together with stem region in proximity were chosen for random mutagenesis to generate riboswitches with re-engineered aptamer sequences with improved activity.
Five aptamer libraries N1, N2, N3, N4 and N5 were generated by randomizing nucleotides at positions in J2-4, J2-3/J3-3a/J3a-2/P3, L3a, J4-5/J5-4/P4 and L5 regions of the parent 12C6-1 sequence, respectively (see FIGS. 3a and 3b). Single bacterial colonies were picked and plasmids containing variant riboswitch constructs were screened in HEK 293 cells for improved gene regulation activity in response to 25 µM Comp. 004 as compared to parent riboswitch construct Luci-12C6-1.
On to “N2_2B7 (CTGGGGAGTCCTTCATGC; chemistry not given here)”, for which the “Fold (induction of luciferase gene expression)” value (“Fold” for short) was found to be 1.2 fold.

For the substance “N2_2B8 (CTGGGGAGTCCTTCATGC; chemistry not given here)”, the “Fold” value is on record as 1.1 fold.

As for “N2_2B9 (CTGGGGAGTCCTTCATGC; chemistry not given here)”, the “Fold” value amounted to 1.1 fold.

Turning to “N2_2B10 (CTGGGGAGTCCTTCATGC; chemistry not given here)”, the “Fold” value was 1.1 fold.

“N2_2B11 (CTGGGGAGTCCTTCATGC; chemistry not given here)”: the “Fold” value came to 1.2 fold.

For “N2_2B12 (CTGGGGAGTCCTTCATGC; chemistry not given here)”, the “Fold” value came to 1.0 fold.

For “N2_2C1 (CTGGGGAGTCCTTCATGC; chemistry not given here)”, the “Fold” value worked out at 1.1 fold.

On to “N2_2C2 (CTGGGGAGTCCTTCATGC; chemistry not given here)”, for which the “Fold” value is on record as 0.8 fold.

Regarding “N2_2C3 (CTGGGGAGTCCTTCATGC; chemistry not given here)”, the “Fold” value is 1.1 fold.

“N2_2C4 (CTGGGGAGTCCTTCATGC; chemistry not given here)”: the “Fold” value worked out at 2.0 fold.

Turning to “N2_2C5 (CTGGGGAGTCCTTCATGC; chemistry not given here)”, the “Fold” value came out at 1.0 fold.

Consider “N2_2C6 (CTGGGGAGTCCTTCATGC; chemistry not given here)”, for which the “Fold” value came out at 0.9 fold.

Consider “N2_2C7 (CTGGGGAGTCCTTCATGC; chemistry not given here)”, for which the “Fold” value is 0.8 fold.

In the case of “N2_2C8 (CTGGGGAGTCCTTCATGC; chemistry not given here)”, the “Fold” value is listed as 0.9 fold.

On to “N2_2C9 (CTGGGGAGTCCTTCATGC; chemistry not given here)”, for which the “Fold” value is recorded as 1.2 fold.

Take “N2_2C10 (CTGGGGAGTCCTTCATGC; chemistry not given here)”: the “Fold” value worked out at 1.2 fold.

In the case of “N2_2C12 (CTGGGGAGTCCTTCATGC; chemistry not given here)”, the “Fold” value is on record as 1.1 fold.

On to “N2_2D1 (CTGGGGAGTCCTTCATGC; chemistry not given here)”, for which the “Fold” value turned out to be 1.1 fold.

As to “N2_2D2 (DNA CTGGGGAGTCCTTCATGC; chemistry not given here)”, the “Fold” value turned out to be 1.1 fold.

“N2_2D3 (DNA CTGGGGAGTCCTTCATGC; chemistry not given here)”: the “Fold” value was 0.9 fold.

Regarding “N2_2D4 (DNA CTGGGGAGTCCTTCATGC; chemistry not given here)”, the “Fold” value amounted to 0.8 fold.

For “N2_2D5 (DNA CTGGGGAGTCCTTCATGC; chemistry not given here)”, the “Fold” value amounted to 0.6 fold.

Regarding “N2_2D6 (DNA CTGGGGAGTCCTTCATGC; chemistry not given here)”, the “Fold” value is listed as 1.1 fold.

As for “N2_2D7 (DNA CTGGGGAGTCCTTCATGC; chemistry not given here)”, the “Fold” value came to 1.0 fold.

For “N2_2D8 (DNA CTGGGGAGTCCTTCATGC; chemistry not given here)”, the “Fold” value amounted to 1.1 fold.

Regarding “N2_2D9 (DNA CTGGGGAGTCCTTCATGC; chemistry not given here)”, the “Fold” value is 1.0 fold.

For the substance “N2_2D10 (DNA CTGGGGAGTCCTTCATGC; chemistry not given here)”, the “Fold” value is reported as 1.2 fold.

For the substance “N2_2D11 (DNA CTGGGGAGTCCTTCATGC; chemistry not given here)”, the “Fold” value worked out at 1.3 fold.

As for “N2_2D12 (DNA CTGGGGAGTCCTTCATGC; chemistry not given here)”, the “Fold” value is listed as 1.1 fold.

For “N2_2E2 (DNA CTGGGGAGTCCTTCATGC; chemistry not given here)”, the “Fold” value came out at 1.1 fold.

Turning to “N2_2E3 (DNA CTGGGGAGTCCTTCATGC; chemistry not given here)”, the “Fold” value is reported as 1.3 fold.

Turning to “N2_2E4 (DNA CTGGGGAGTCCTTCATGC; chemistry not given here)”, the “Fold” value is reported as 0.7 fold.

Turning to “N2_2E5 (DNA CTGGGGAGTCCTTCATGC; chemistry not given here)”, the “Fold” value is given as 1.2 fold.

Regarding “N2_2E6 (DNA CTGGGGAGTCCTTCATGC; chemistry not given here)”, the “Fold” value is 0.9 fold.

Take “N2_2E7 (DNA CTGGGGAGTCCTTCATGC; chemistry not given here)”: the “Fold” value is 1.1 fold.

“N2_2E8 (DNA CTGGGGAGTCCTTCATGC; chemistry not given here)”: the “Fold” value was determined as 0.9 fold.

For the substance “N2_2E10 (DNA CTGGGGAGTCCTTCATGC; chemistry not given here)”, the “Fold” value was 1.2 fold.

With “N2_2E12 (DNA CTGGGGAGTCCTTCATGC; chemistry not given here)”, the “Fold” value is 1.3 fold.

Regarding “N2_2F1 (DNA CTGGGGAGTCCTTCATGC; chemistry not given here)”, the “Fold” value is reported as 1.1 fold.

As to “N2_2F2 (DNA CTGGGGAGTCCTTCATGC; chemistry not given here)”, the “Fold” value was determined as 1.0 fold.

Regarding “N2_2F3 (DNA CTGGGGAGTCCTTCATGC; chemistry not given here)”, the “Fold” value is given as 0.9 fold.

On to “N2_2F4 (DNA CTGGGGAGTCCTTCATGC; chemistry not given here)”, for which the “Fold” value came to 1.2 fold.

On to “N2_2F6 (DNA CTGGGGAGTCCTTCATGC; chemistry not given here)”, for which the “Fold” value is 1.0 fold.

For the substance “N2_2F7 (DNA CTGGGGAGTCCTTCATGC; chemistry not given here)”, the “Fold” value is listed as 1.0 fold.

For the substance “N2_2F8 (DNA CTGGGGAGTCCTTCATGC; chemistry not given here)”, the “Fold” value turned out to be 1.0 fold.

As for “N2_2F10 (DNA CTGGGGAGTCCTTCATGC; chemistry not given here)”, the “Fold” value stood at 1.1 fold.

Take “N2_2F11 (DNA CTGGGGAGTCCTTCATGC; chemistry not given here)”: the “Fold” value was 1.1 fold.

As for “N2_2F12 (DNA CTGGGGAGTCCTTCATGC; chemistry not given here)”, the “Fold” value is 1.0 fold.

“N2_2G1 (DNA CTGGGGAGTCCTTCATGC; chemistry not given here)”: the “Fold” value is listed as 1.7 fold.

For “N2_2G2 (DNA CTGGGGAGTCCTTCATGC; chemistry not given here)”, the “Fold” value stood at 1.3 fold.

Consider “N2_2G3 (DNA CTGGGGAGTCCTTCATGC; chemistry not given here)”, for which the “Fold” value is 1.1 fold.

Consider “N2_2G4 (DNA CTGGGGAGTCCTTCATGC; chemistry not given here)”, for which the “Fold” value amounted to 1.1 fold.

Take “N2_2G5 (DNA CTGGGGAGTCCTTCATGC; chemistry not given here)”: the “Fold” value is on record as 1.0 fold.

Turning to “N2_2G6 (DNA CTGGGGAGTCCTTCATGC; chemistry not given here)”, the “Fold” value came out at 1.1 fold.

On to “N2_2G7 (DNA CTGGGGAGTCCTTCATGC; chemistry not given here)”, for which the “Fold” value turned out to be 1.0 fold.

On to “N2_2G8 (DNA CTGGGGAGTCCTTCATGC; chemistry not given here)”, for which the “Fold” value stood at 1.1 fold.

For “N2_2G9 (CTGGGGAGTCCTTCATGC; chemistry not given here)”, the “Fold” value came to 1.3 fold.

Take “N2_2G10 (DNA CTGGGGAGTCCTTCATGC; chemistry not given here)”: the “Fold” value stood at 1.0 fold.

For “N2_2G11 (DNA CTGGGGAGTCCTTCATGC; chemistry not given here)”, the “Fold” value was 0.9 fold.

For “N2_2H1 (CTGGGGAGTCCTTCATGC; chemistry not given here)”, the “Fold” value came to 1.1 fold.

As for “N2_2H2 (CTGGGGAGTCCTTCATGC; chemistry not given here)”, the “Fold” value amounted to 0.8 fold.

Take “N2_2H3 (CTGGGGAGTCCTTCATGC; chemistry not given here)”: the “Fold” value is 1.0 fold.

Turning to “N2_2H4 (CTGGGGAGTCCTTCATGC; chemistry not given here)”, the “Fold” value was determined as 1.0 fold.
